In patent US20230304018A1, “COMPOSITIONS AND METHODS FOR ENHANCING WEIGHT LOSS” (The Children's Hospital of Philadelphia, priority 2017, published 2023):
Counter-ions that a name gives are not always drawn.

Key:
JAK2 = JAK2 (Homo sapiens, UniProt O60674); conditions: cited from earlier work
JAK3 = molecular target: T1, JAK3 (Homo sapiens, UniProt P52333); conditions: cited from earlier work
T1 sequence (P52333 1-1124): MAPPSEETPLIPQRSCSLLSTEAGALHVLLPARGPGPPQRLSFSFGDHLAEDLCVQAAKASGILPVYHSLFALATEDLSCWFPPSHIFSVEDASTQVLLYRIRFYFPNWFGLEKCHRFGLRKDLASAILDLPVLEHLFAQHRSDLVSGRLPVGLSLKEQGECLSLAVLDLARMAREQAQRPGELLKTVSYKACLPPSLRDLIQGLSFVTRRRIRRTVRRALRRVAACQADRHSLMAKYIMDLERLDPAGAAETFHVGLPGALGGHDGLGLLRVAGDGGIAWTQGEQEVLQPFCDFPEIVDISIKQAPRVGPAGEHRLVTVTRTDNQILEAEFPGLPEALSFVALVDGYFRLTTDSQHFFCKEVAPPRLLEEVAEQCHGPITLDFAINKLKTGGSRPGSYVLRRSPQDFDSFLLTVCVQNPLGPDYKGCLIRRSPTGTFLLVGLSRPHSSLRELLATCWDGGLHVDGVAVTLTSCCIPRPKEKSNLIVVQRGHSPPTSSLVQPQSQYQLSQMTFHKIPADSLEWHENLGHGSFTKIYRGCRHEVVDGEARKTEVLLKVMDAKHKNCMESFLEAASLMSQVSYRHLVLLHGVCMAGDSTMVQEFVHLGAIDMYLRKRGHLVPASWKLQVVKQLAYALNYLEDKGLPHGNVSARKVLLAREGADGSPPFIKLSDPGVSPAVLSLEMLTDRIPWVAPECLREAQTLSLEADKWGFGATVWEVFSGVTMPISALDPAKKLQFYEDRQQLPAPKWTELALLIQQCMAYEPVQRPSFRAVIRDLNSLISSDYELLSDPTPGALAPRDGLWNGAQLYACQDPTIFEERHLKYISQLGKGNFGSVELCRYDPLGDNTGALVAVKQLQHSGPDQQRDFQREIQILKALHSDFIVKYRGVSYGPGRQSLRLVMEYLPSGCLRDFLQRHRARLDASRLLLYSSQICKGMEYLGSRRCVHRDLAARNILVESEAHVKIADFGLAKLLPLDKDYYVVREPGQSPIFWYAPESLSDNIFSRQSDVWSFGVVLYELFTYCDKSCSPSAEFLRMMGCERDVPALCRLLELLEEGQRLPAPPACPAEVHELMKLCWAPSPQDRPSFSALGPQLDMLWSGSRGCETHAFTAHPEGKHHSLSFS

JAK1 = JAK1 (Homo sapiens, UniProt P23458); conditions: cited from earlier work
TYK2 = TYK2 (Homo sapiens, UniProt P29597); conditions: cited from earlier work
19 other tested kinases = conditions: cited from earlier work
mTOR [1] = molecular target: mTOR (Homo sapiens, UniProt P42345); conditions: cited from earlier work
PKC (Rat brain) = conditions: cited from earlier work
PI3K isoforms = conditions: cited from earlier work
[2] = system: panel of 38 non-JAK kinases; conditions: cited from earlier work
[3] = system: Vps34, AKT, PDK1, p70S6K, MEK, ERK, p38, or JNK; conditions: cited from earlier work
mTOR [4] = molecular target: T2, mTOR (Homo sapiens, UniProt P42345+P62942); conditions: cited from earlier work
T2 construct: endogenous in cells; host or cells: HT-1080 cell line

Flt3 = molecular target: T3, Flt3 (Homo sapiens, UniProt P36888); conditions: cell-free assays; cited from earlier work
T3 sequence (P36888 27-993): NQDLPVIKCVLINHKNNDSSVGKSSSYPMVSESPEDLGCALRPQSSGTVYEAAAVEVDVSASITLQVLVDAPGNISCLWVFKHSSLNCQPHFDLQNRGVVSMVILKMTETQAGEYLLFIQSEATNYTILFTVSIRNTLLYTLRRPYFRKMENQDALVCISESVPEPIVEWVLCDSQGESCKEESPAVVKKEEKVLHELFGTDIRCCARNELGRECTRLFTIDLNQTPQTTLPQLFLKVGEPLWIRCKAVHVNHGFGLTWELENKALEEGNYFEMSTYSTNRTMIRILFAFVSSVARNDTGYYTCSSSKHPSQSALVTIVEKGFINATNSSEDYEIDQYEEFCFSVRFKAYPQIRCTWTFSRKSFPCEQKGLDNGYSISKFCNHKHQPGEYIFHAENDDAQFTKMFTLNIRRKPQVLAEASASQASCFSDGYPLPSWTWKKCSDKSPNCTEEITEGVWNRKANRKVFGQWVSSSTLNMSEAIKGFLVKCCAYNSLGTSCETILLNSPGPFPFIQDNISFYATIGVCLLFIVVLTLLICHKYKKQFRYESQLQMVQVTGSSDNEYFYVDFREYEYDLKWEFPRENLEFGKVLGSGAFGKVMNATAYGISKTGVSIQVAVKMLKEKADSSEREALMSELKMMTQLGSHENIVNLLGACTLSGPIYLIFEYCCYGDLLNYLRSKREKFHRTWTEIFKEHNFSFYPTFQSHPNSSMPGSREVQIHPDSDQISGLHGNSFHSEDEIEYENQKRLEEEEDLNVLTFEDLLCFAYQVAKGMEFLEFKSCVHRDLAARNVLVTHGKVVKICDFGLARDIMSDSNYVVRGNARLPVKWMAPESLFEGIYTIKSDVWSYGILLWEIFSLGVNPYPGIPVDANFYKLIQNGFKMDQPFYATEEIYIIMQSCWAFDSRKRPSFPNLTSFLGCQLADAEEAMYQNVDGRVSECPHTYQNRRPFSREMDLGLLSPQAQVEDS

RET = RET (Homo sapiens, UniProt P07949); conditions: cell-free assays; cited from earlier work
[5] = system: UBC-Cre-Clec16a^loxP KO mice; test: Tofacitinib treatment of Clec16a KO mice: fat, weight, survival; type: in vivo
[6] = system: HSL, STATs, AMPK, mTOR, P62, LC3I/II and SOCS-1 expression; test: Immunoblot analysis on gWAT from control, KO and Tofacitinib treated mice; type: in vivo
Source text: To examine the signaling mechanism underlying the rescue, we performed immunoblot analysis on gWAT isolated from control, KO and Tofacitinib treated mice. We evaluated HSL, STATs, AMPK, mTOR, P62, LC3I/II and SOCS-1 expression (FIG. 10C). […]. […]. Over-activation of mTOR indicates inhibition of autophagy/lipophagy as evident by significant accumulation of P62 in CLEC16A KO mice. […].

[7] = system: cytokines and chemokine from plasma of Clec16a KO mice; test: Plasma cytokines and chemokines, Mouse Cytokine Array panel; type: in vivo
Source text: FIG. 11. […]. The representative graph is quantification of cytokines and chemokine from plasma of Control (Vehicle), KO and KO+Tofacitinib inhibitor treated mice using the Mouse Cytokine Array panel.
To gain insight in the inflammatory mechanism involved in the development, progression and pathogenesis of various autoimmune diseases, we profiled plasma from control, KO and […] KO mice for cytokines and chemokine using Mouse Cytokine Array panel.

majority of kinases = conditions: tested at 1 μM; cited from earlier work
STAT3 = conditions: HEL cells; cited from earlier work
[8] = gWAT immunoblot, CLEC16A KO mice

Sequence of JAK2 (O60674 whole entry, species assumed): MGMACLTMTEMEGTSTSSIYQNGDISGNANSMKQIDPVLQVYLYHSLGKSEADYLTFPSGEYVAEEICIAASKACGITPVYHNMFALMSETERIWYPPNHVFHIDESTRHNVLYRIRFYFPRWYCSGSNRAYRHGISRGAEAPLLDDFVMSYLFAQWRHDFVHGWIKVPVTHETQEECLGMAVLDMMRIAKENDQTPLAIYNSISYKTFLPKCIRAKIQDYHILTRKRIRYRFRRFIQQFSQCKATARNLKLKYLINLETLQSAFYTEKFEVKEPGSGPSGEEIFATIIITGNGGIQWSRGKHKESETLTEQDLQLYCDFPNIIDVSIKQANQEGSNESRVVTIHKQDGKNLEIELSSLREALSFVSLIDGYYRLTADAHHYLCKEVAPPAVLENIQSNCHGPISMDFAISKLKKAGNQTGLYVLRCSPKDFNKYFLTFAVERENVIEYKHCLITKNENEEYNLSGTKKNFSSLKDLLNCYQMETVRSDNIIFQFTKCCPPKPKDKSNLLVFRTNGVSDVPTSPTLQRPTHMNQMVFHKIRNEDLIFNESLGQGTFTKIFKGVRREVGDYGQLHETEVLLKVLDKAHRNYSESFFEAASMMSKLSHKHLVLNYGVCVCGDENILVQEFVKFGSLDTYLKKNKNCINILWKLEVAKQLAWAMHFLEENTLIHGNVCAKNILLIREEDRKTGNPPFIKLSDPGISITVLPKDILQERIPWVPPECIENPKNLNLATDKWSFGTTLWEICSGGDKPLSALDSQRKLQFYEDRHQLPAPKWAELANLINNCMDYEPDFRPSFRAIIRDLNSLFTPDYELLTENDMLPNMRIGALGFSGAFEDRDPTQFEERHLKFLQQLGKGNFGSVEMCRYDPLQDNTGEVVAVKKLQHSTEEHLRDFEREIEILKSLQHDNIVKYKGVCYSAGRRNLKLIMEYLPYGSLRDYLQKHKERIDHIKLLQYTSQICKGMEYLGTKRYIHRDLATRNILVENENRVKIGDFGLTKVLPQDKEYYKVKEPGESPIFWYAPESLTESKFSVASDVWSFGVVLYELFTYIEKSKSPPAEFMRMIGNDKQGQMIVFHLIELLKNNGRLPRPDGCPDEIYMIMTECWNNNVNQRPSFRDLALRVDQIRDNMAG
Sequence of TYK2 (P29597 whole entry): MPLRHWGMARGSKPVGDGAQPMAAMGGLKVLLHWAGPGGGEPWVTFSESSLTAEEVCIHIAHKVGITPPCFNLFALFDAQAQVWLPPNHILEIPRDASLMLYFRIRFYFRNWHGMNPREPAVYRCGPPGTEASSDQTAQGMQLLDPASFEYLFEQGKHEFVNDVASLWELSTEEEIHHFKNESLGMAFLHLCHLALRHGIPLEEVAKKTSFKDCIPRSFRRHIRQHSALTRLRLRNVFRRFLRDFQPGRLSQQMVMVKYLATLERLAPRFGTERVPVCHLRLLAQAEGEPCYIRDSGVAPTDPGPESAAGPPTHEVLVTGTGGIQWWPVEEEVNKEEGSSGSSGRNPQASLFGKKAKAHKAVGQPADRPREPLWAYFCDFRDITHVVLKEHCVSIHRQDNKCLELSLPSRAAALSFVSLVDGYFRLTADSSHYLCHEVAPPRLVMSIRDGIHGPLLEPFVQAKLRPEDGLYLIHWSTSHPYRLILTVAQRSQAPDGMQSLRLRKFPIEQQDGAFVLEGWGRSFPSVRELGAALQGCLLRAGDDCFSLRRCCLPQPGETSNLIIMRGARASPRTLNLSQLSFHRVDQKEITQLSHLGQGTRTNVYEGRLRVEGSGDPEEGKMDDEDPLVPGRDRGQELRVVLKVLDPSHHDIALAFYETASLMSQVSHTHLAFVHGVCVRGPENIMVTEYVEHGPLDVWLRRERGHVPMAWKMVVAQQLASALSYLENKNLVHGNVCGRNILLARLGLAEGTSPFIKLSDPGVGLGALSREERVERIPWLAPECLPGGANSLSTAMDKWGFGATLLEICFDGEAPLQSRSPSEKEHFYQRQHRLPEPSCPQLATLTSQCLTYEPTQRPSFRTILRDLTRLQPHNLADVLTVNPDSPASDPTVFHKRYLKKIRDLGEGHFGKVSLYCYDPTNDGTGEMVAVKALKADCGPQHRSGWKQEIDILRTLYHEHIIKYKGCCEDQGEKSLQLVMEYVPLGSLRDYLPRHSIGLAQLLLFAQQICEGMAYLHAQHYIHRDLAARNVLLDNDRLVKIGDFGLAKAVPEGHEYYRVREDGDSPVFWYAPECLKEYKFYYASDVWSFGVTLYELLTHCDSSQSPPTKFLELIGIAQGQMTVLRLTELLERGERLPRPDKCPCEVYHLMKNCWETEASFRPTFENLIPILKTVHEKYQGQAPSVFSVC
Sequence of JAK1 (P23458 whole entry, species assumed): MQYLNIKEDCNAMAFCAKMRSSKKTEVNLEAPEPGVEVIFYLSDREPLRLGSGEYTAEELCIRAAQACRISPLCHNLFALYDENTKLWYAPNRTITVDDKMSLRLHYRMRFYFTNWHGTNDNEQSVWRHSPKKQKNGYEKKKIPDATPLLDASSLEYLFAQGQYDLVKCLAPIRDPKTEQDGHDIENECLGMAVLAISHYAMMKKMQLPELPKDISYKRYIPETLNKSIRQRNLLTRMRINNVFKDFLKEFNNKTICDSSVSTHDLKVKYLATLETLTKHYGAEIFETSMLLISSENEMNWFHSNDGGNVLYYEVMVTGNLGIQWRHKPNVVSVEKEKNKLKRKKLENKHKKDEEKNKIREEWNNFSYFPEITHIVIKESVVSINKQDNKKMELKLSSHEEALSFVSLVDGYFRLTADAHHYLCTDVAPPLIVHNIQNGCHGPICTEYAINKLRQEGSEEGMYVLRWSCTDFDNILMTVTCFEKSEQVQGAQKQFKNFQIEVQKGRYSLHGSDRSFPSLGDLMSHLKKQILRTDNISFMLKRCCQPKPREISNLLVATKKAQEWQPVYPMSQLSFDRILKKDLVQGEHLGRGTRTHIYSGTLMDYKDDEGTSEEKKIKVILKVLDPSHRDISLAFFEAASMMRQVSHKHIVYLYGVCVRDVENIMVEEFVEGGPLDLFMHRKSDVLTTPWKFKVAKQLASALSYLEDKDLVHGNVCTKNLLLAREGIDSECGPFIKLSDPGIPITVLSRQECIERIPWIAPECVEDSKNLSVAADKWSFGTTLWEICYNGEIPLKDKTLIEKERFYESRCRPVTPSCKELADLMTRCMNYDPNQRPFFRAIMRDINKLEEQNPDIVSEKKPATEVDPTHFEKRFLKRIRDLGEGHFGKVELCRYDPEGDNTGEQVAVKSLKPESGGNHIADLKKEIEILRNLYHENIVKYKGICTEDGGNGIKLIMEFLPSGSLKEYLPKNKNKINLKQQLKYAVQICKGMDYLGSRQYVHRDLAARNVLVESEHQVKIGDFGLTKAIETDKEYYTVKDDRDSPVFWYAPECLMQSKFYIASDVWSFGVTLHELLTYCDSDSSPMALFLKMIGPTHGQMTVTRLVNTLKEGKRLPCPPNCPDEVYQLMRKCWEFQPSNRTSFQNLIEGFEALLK
T2 sequence (Q9BVC4 whole entry): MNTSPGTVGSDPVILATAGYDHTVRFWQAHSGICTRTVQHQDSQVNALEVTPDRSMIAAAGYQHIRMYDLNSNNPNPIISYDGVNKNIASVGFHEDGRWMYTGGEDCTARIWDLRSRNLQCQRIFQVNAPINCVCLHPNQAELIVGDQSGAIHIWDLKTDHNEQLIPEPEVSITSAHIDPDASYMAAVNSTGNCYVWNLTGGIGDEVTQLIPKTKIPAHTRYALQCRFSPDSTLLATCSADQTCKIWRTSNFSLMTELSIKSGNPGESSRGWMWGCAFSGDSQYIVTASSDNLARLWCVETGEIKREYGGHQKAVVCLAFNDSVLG
T2 sequence (P62942 2-108): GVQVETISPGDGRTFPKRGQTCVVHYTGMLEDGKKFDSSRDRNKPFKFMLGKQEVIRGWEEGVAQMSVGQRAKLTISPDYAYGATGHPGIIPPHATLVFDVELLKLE
Sequence of RET (P07949 29-1114, species assumed): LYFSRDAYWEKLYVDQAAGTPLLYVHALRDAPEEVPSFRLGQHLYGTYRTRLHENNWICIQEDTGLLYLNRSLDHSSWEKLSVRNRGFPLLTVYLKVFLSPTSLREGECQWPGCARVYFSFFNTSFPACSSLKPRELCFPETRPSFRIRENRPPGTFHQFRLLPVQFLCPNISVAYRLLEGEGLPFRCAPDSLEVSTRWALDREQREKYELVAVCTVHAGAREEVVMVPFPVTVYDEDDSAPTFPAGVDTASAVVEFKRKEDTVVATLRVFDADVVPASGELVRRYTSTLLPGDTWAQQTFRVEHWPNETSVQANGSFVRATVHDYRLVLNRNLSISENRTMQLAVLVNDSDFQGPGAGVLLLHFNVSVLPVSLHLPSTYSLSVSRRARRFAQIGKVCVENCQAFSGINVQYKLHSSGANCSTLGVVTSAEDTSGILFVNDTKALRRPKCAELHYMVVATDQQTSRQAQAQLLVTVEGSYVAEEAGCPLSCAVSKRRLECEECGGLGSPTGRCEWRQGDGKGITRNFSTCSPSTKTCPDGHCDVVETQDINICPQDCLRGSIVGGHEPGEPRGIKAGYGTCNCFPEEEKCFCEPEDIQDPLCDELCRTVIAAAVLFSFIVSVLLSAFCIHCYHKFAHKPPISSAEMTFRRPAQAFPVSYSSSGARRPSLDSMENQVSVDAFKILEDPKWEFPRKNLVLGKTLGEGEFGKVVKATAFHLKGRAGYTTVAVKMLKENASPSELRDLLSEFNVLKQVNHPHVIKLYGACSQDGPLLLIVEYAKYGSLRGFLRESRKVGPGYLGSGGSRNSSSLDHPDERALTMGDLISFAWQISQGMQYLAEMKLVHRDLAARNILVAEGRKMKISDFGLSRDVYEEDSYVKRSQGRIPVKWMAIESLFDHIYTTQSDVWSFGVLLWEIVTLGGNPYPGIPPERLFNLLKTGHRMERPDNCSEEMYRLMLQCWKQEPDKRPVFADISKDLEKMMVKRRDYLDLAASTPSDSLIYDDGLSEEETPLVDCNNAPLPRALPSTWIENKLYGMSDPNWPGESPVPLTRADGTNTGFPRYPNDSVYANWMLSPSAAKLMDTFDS

Which IC50 (JAK2) does the source give for `Cc1cc(Nc2nc(N[C@@H](C)c3ccc(F)cc3)c(C#N)cc2F)n[nH]1` [AZ 960] here?
The IC50 was under 3 nM.

And the “selectivity for JAK2 versus JAK3” value (JAK3)?
Its value is 3 fold.

Which “selectivity for JAK2 versus JAK1” value (JAK1) does the source give for `CCn1c(C(=O)N(C2CC2)C2CC2)cc2c3c(ncn3C)c(Nc3cc(C)n(C)n3)nc21` [BMS-911543] here?
Its value is about 350 fold.

What about the “selectivity for JAK2 versus JAK3” value (JAK3) of the same compound?
The value was 75 fold.

What about the “selectivity for JAK2 versus TYK2” value (TYK2) of the same compound?
The value was 65 fold.

Which “selectivity for JAK2 versus JAK1” value (JAK1) does the source give for `CN1CCN(c2cccc(Nc3nc4c(-c5ccc(S(C)(=O)=O)cc5)cccn4n3)c2)CC1` [CEP33779] here?
Its value is over 40 fold.

What about the IC50 (JAK2) of the same compound?
Its IC50 is 1.8 nM.

What about the “selectivity for JAK2 versus TYK2” value (TYK2) of the same compound?
Its value is over 800 fold.

Which IC50 (19 other tested kinases) does the source give for `CCS(=O)(=O)N1CCN(c2ccc(Nc3ncc(C(N)=O)c(NC4CC4)n3)cc2)CC1` [Cerdulatinib] here?
Its IC50 is under 200 nM.

Which IC50 (mTOR [1]) does the source give for `CO[C@H]1C[C@@H]2CC[C@@H](C)[C@@](O)(O2)C(=O)C(=O)N2CCCC[C@H]2C(=O)O[C@H]([C@H](C)C[C@@H]2CC[C@@H](OCCO)[C@H](OC)C2)CC(=O)[C@H](C)/C=C(\C)[C@@H](O)[C@@H](OC)C(=O)[C@H](C)C[C@H](C)/C=C/C=C/C=C/1C` [Everolimus] here?
Its IC50 is 1.6 to 2.4 nM.

Which IC50 (JAK1) does the source give for `N#Cc1ccc(COc2ccc(-c3cccc4nc(NC(=O)C5CC5)nn34)cc2)cn1` [GLPG0634 analogue] here?
Its IC50 is 10 nM.

And the IC50 (JAK2)?
The IC50 was 28 nM.

And the IC50 (JAK3)?
The IC50 was 810 nM.

What about the IC50 (TYK2) of the same compound?
The IC50 was 116 nM.

With `Cn1c2ccccc2c2c3c(c4c5ccccc5n(CCC#N)c4c21)CNC3=O` [Go6976] as the compound, how does the IC50 (PKC (Rat brain)) read?
Its IC50 is 7.9 nM.

Which “effect on PI3Ks” value (PI3K isoforms) does the source give for `COc1ccc(-c2ccc3c(N4CCOCC4)nc(N4C[C@@H](C)O[C@@H](C)C4)nc3n2)cc1CO` [KU-0063794] here?
Its value is “no effect”.

With `CNS(=O)(=O)C[C@H]1CC[C@H](N(C)c2ncnc3[nH]ccc23)CC1` [Oclacitinib] as the compound, how does the “inhibition of a panel of 38 non-JAK kinases” value [2] read?
Its value is “does not inhibit”.

With `COc1ccc(-c2cc3c(C)nc(N)nc3n([C@H]3CC[C@H](OCCO)CC3)c2=O)cn1` [PF-04691502] as the compound, how does the “activity against Vps34, AKT, PDK1, p70S6K, MEK, ERK, p38, or JNK” value [3] read?
Its value is “little activity”.

With `CO[C@H]1C[C@@H]2CC[C@@H](C)[C@@](O)(O2)C(=O)C(=O)N2CCCC[C@H]2C(=O)O[C@H]([C@H](C)C[C@@H]2CC[C@@H](OP(C)(C)=O)[C@H](OC)C2)CC(=O)[C@H](C)/C=C(\C)[C@@H](O)[C@@H](OC)C(=O)[C@H](C)C[C@H](C)/C=C/C=C/C=C/1C` [Ridaforolimus] as the compound, how does the IC50 (mTOR [4]) read?
The IC50 was 0.2 nM.

For `Cc1cnc(Nc2ccc(N3CCN(C)CC3)cc2)nc1Nc1cccc(S(=O)(=O)NC(C)(C)C)c1` [TG101209], which IC50 (Flt3) is on record?
Its IC50 is 25 nM.

What about the IC50 (RET) of the same compound?
The IC50 was 17 nM.

Which “lipodystrophic (inflammatory) phenotype” value [5] does the source give for `C[C@@H]1CCN(C(=O)CC#N)C[C@@H]1N(C)c1ncnc2[nH]ccc12` [Tofacitinib] here?
The value was “partially rescues”.

And the “fat and weight loss” value ([5]; Tofacitinib treatment)?
The value was “significantly rescued”.

And the survival ([5]; Tofacitinib treatment)?
The survival was “improves”.

What about the autophagy/lipophagy defect ([6]; gWAT immunoblot (P62), CLEC16A KO mice) of the same compound?
Its autophagy/lipophagy defect is “rescues”.

What about the SOCS1 expression [6, 8] of the same compound?
Its SOCS1 expression is “significantly reversed”.

And the “p-STAT1 and p-STAT3” value [6, 8]?
The value was “downregulating the p-STAT1 and p-STAT3 to normal levels comparable to control”.

What about the “phosphorylation of ACC” value [6, 8] of the same compound?
Its value is “promoted”.

What about the “phosphorylation of mTOR” value [6, 8] of the same compound?
Its value is “reversal”.

And the “upregulated p-AMPK” value [6, 8]?
The value was “significantly reduced”.

What about the “phospho-HSL (p-HSL)” value ([6]; gWAT immunoblot, CLEC16A KO+Tofacitinib mice) of the same compound?
The value was “significant reversal”.

And the “CLEC16A knockout inflammatory phenotype (cytokines/chemokine levels)” value ([7]; plasma, KO+Tofacitinib treated mice, FIG. 11)?
The value was “attenuated”.

With `N#CC(=C(/N)Sc1ccccc1N)/C(C#N)=C(\N)Sc1ccccc1N` [U0126] as the compound, how does the “up regulated cytokines and chemokines” value ([7]; plasma of U0126-treated KO mice) read?
The value was “reversed”.

For `CNC(=O)c1cccc(-c2ccc3c(N4CCOC[C@@H]4C)nc(N4CCOC[C@@H]4C)nc3n2)c1` [Vistusertib], which “binding to the majority of kinases” value (majority of kinases) is on record?
The value was “no or weak binding”.

Which “activity against JAK1” value (JAK1) does the source give for `COc1cc2ncnc(Nc3ccc(O)c(Br)c3)c2cc1OC` [WHI-P154] here?
The value was “no activity”.

What about the “activity against JAK2” value (JAK2) of the same compound?
The value was “no activity”.

For `C[C@H](NC(=O)/C(C#N)=C/c1cccc(Br)n1)c1ccccc1` [WP1066], which IC50 (STAT3) is on record?
The IC50 was 2430 nM.

Which “activity against JAK2” value (JAK2) does the source give for `CC(C)N(CCC(=O)c1ccc2ccccc2c1)Cc1ccccc1` [ZM 39923 HCl] here?
Its value is “almost no activity”.
